“Also recorded” adds a separate entry of the source.
Columns and labels:
[1] = system: IL-1β secretion in RAW264.7 cells induced by LPS; experiment: IL-1β content in supernatant of LPS-induced RAW264.7 cells (ELISA); format: cell-based, mouse
Source text: Interleukin-1β (IL-1β) has strong proinflammatory activity and can induce the production of a variety of proinflammatory mediators, such as cytokines and chemokines. In this work, the ELISA method was used to determine the IL-1β content in the supernatant of RAW264.7 cells stimulated by LPS to evaluate the effects of five compounds on IL-1β secretion.
RAW264.7 mouse macrophages were purchased from Zhongqiao Xinzhou and cultured in DMEM supplemented with 10% fetal bovine serum (FBS) and 1% penicillin/streptomycin in a 37 °C, 5% CO2 incubator. The cells were passaged every two days to maintain the monolayer cell state.
The RAW264.7 cells in the logarithmic growth phase were seeded in a 24-well plate and placed in a 37 °C, 5% CO2 constant temperature incubator for culture. After 24 h, the culture medium was discarded. The blank group was added with 10% FBS DMEM 1 mL. The group was added with a medium containing 1 ug/mL LPS, and the experimental group was added with LPS and different concentrations of the target compound to make the final volume 1 mL. After 24 h of culture, the cell supernatant was taken and stored in a refrigerator at −20 °C for later use. The Griess kit was used to determine the concentration of NO in the supernatant, and a double antibody sandwich ELISA kit was used to detect TNF-α and IL-1β.

[2] = biological target: T1, ovine cyclooxygenase-1 (COX-1) (Ovis aries, UniProt P05979); experiment: In vitro COX inhibition assay (enzyme immunoassay kit), COX-1; format: biochemical; details: ovine COX-1, enzyme immunoassay kit
T1 construct: purchased Cayman Chemical 560131
T1 sequence (P05979 25-600): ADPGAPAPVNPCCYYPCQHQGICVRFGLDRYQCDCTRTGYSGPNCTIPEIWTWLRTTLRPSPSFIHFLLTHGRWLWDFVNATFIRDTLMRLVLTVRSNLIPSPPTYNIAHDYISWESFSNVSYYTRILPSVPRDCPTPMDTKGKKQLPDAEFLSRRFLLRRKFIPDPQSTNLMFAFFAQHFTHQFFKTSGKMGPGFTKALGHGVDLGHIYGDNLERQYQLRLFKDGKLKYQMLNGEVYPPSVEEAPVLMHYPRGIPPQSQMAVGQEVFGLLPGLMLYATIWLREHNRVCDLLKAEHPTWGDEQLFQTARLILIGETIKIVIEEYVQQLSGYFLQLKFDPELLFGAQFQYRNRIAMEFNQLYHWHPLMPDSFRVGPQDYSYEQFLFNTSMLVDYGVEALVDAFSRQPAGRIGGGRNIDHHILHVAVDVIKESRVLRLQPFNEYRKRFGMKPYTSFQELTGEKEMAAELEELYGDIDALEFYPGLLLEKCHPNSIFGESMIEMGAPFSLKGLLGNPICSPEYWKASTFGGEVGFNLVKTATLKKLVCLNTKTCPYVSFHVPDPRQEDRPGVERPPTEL
Procedure: The inhibition ability of 1-methylhydantoin cinnamic imides to ovine cyclooxygenase-1 (COX-1) and cyclooxygenase-2 (COX-2) was determined using an enzyme immunoassay kit. […] The Cell Counting Kit-8 (CCK-8) method was used to detect the cytotoxicity of the five target compounds (1–5) on lipopolysaccharide (LPS)-induced RAW264.7 cells. When the concentrations of compounds 1, 3 and 5 are lower than 20 μM, and when the concentrations of compounds 2 and 4 are lower than 80 μM, the survival rate of RAW264.7 cells is more than 95%, which has no obvious damage to cell survival and can be used for subsequent in vitro anti-inflammatory activity experiments to provide the basis.
The inhibition ability of ovine COX-1 and COX-2 was determined using an enzyme immunoassay kit (560131, Cayman Chemical, Ann Arbor, MI, USA) following the manufacturer’s instructions.

[3] = 80 μM, LPS, 24 h, RAW264.7, vs model group
[4] = LPS-stimulated RAW264.7, concentration not stated

IC50 [2] [µM]	SMILES	inhibition of IL-1β secretion ([1]; 20 μM, LPS, 24 h, RAW264.7, vs model group)	inhibition of IL-1β secretion [1, 3]	inhibition of IL-1β secretion [1, 4]
56 ± 6	CN1CC(=O)N(C(=O)/C=C/c2ccco2)C1=O [Compound 2, (E)-3-(3-(furan-2-yl)acryloyl)-1-methylimidazolidine-2,4-dione]	no obvious inhibitory effect on IL-1β	significant inhibitory effect on the secretion of IL-1β	reduce the secretion of TNF-α and IL-1β
37 ± 4	CC(=O)Oc1ccc(/C=C/C(=O)N2C(=O)CN(C)C2=O)cc1 [Compound 4, (E)-4-(3-(3-methyl-2,5-dioxoimidazolidin-1-yl)-3-oxoprop-1-en-1-yl)phenyl acetate]	–	significant inhibitory effect on the secretion of IL-1β	reduce the secretion of TNF-α and IL-1β; also recorded: significantly inhibited the secretion of inflammatory factors TNF-α and IL-1β

— PMC9737772, “Synthesis and Anti-Inflammatory Activity of 1-Methylhydantoin Cinnamoyl Imides” (Molecules, 2022)
